US20230128969A1, “POLYURETHANE FOAM COMPOSITIONS WITH ANTIMICROBIAL PROPERTIES” (SANITIZED AG, priority 2020, published 2023)
Several values for one entry are separate records, joined by “and”; a condition that tells them apart may be missing. Equal values may be shown once. Read-outs that look alike come from different tables or passages of the source.

Columns and labels:
[1] = system: Escherichia coli ATCC 11229; experiment: JIS L 1902 test method (memory foam, 18 hours); type: cell-based; conditions: memory foam A2
[2] = system: Aspergillus niger-ATCC 6275, Penicillium funiculosum-ATCC 36839, Chaetomium globosum-ATCC 6205, Trichoderma virens ATCC 9645, Paecilomyces varioti-ATCC 18502; experiment: EN ISO 846 A test method (PUD coatings, 28 days); type: cell-based, fungi (composite spore suspension); design: key: 0: No fungal growth, excellent resistance; 1: fungi visible with the microscope, sufficient resistance; 2-5: fungi visible to the naked eye, insufficient resistance; conditions: polyurethane coating A5
[3] = system: Penicillium funiculosum-ATCC 36839; experiment: Agar diffusion test SAN BIO 12/94; type: cell-based; conditions: polyurethane coating A5
[4] = system: Escherichia coli ATCC 8739; experiment: JIS Z 2801 test method (PUD coatings, 24 hours); type: cell-based; conditions: polyurethane coating A5
[5] = system: Aspergillus niger-ATCC 9642, Penicillium funiculosum-ATCC 11797, Chaetomium globosum-ATCC 6205, Trichoderma virens-ATCC 9645, Aureobasidium pullulans-ATCC …; experiment: ASTM G21 strengthened (fungal growth on specimen, 28 days); type: cell-based, mold fungi (composite spore suspension); conditions: for ASTM G21: 0.5 pbw (B) with 0.25 pbw (C) C8-C18-alkyldimethylbenzyl ammonium chloride; for ASTM G21 strengthened rating: rigid foam A4
[6] = 0.5 pbw (C) with 0.25 pbw (B) tetrasodium EDTA salt
[7] = 0.5 pbw (C) with 0.5 pbw (B) tetrasodium EDTA salt
[8] = memory foam A2, 0.125 pbw (C), 0 pbw (B)
[9] = memory foam A2, 0.25 pbw (C), 0 pbw (B)
[10] = memory foam A2, 0.5 pbw (C), 0 pbw (B)
[11] = memory foam A2, 1 pbw (C), 0 pbw (B)
[12] = memory foam A2, 0.5 pbw (B), 0 pbw (C)
[13] = memory foam A2, 2 pbw (C), 0 pbw (B)
[14] = memory foam A1, 0.2 pbw (B) with 0.5 pbw (C) dimethyltetradecyl(3-(trimethoxysilyl)propyl)ammonium chloride, (E) Diglyme 0.8 pbw

`CCCCCCCCCCCCCC[N+](C)(C)CCC[Si](OC)(OC)OC.[Cl-]` [dimethyltetradecyl(3-(trimethoxysilyl)propyl)ammonium chloride] was tested, and the “logarithmic reduction of bacterial growth (log R), JIS L 1902” value ([1]; 1 pbw (C), 0 pbw (B)) was 2.7 log R, the “bacterial growth (in words)” value ([1]; combination of (C) with (B) disodium EDTA dihydrate) was “absence of bacterial growth” and the “EN ISO 846 A rating” value [2, 6] was 3. The “EN ISO 846 A rating” value [2, 7] was 1, the “EN ISO 846 A rating” value ([2]; 0.5 pbw (C) with 1 pbw (B) tetrasodium EDTA salt) was 0 and the “EN ISO 846 A rating” value ([2]; 0.5 pbw (C), 0 pbw (B)) was 5. For the same compound, the “SAN BIO 12-94 fungal growth” value ([3]; 0.5 pbw (C), 0 pbw (B)) was “Full (f) (insufficient protection, sample is covered with fungi)”, the “Bacterial Activity R, logarithmic reduction (log R activity), JIS Z 2801” value ([4]; 0.125 pbw (C) with 0.25 pbw (B) tetrasodium EDTA salt) was 2.80 log R and the “Bacterial Activity R, logarithmic reduction (log R activity), JIS Z 2801” value ([4]; 0.125 pbw (C) with 0.5 pbw (B) tetrasodium EDTA salt) was >5.10 log R. For the same compound, the “Bacterial Activity R, logarithmic reduction (log R activity), JIS Z 2801” value ([4]; 0.125 pbw (C), 0 pbw (B)) was 0.10 log R, the “Bacterial Activity R, logarithmic reduction (log R activity), JIS Z 2801” value [4, 6] was 2.90 log R and the “Bacterial Activity R, logarithmic reduction (log R activity), JIS Z 2801” value [4, 7] was >5.10 log R. For the same compound, the “Bacterial Activity R, logarithmic reduction (log R activity), JIS Z 2801” value ([4]; 0.5 pbw (C), 0 pbw (B)) was 0.50 log R, the “G21 (ASTM G21 strengthened rating)” value ([5]; memory foam A1, 0.5 pbw (C), no (B), (E) Arcol Polyol 1108 1 pbw) was 4 (at least 60% of the surface is covered with mold fungi) and the “G21 (ASTM G21 strengthened rating)” value ([5]; memory foam A1, 0.5 pbw (C), no (B), (E) Diglyme 1 pbw) was 4 (at least 60% of the surface is covered with mold fungi). The “G21 (ASTM G21 strengthened rating)” value ([5]; memory foam A1, 0.5 pbw (C), no (B), (E) Triacetin 1 pbw) was 4 (at least 60% of the surface is covered with mold fungi), the “G21 (ASTM G21 strengthened rating)” value ([5]; memory foam A1, 0.5 pbw (C), no (B), no (E)) was 3 (30 to 60% of the surface is covered with mold fungi) and the “G21 (ASTM G21 strengthened rating)” value [5, 8] was 4 (at least 60% of the surface is covered with mold fungi). The “G21 (ASTM G21 strengthened rating)” value [5, 9] was 3 (30 to 60% of the surface is covered with mold fungi) and the “G21 (ASTM G21 strengthened rating)” value [5, 10] was 0.

For `CCCCCCCCCC[N+](C)(C)CCCCCCCCCC.[Cl-]` [didecyldimethyl ammonium chloride], the “G21 (ASTM G21 strengthened rating)” value [5] was 0.

With `O=C([O-])CN(CCN(CC(=O)[O-])CC(=O)[O-])CC(=O)[O-].[Na+].[Na+].[Na+].[Na+]` [tetrasodium EDTA salt, EDTA, tetrasodium] the “EN ISO 846 A rating” value ([2]; 0.25 pbw (B), 0 pbw (C)) was 5, the “EN ISO 846 A rating” value ([2]; 0.5 pbw (B), 0 pbw (C)) was 5 and the “EN ISO 846 A rating” value ([2]; 1 pbw (B), 0 pbw (C)) was 5. The “Bacterial Activity R, logarithmic reduction (log R activity), JIS Z 2801” value ([4]; 0.25 pbw (B), 0 pbw (C)) was 0.90 log R, the “Bacterial Activity R, logarithmic reduction (log R activity), JIS Z 2801” value ([4]; 0.5 pbw (B), 0 pbw (C)) was 3.20 log R and the “G21 (ASTM G21 strengthened rating)” value [5] was 0. For the same compound, the “antimicrobial efficiency / protection (in words)” value [5] was “very good antimicrobial efficiency”.

In the case of `CCCCCCCCCCCCN(CCCN)CCCN` [laurylamine dipropylenediamine], the “G21 (ASTM G21 strengthened rating)” value [5, 10] is reported as 4 (at least 60% of the surface is covered with mold fungi) and the “G21 (ASTM G21 strengthened rating)” value [5, 11] is reported as 4 (at least 60% of the surface is covered with mold fungi).

In the case of `O=C(O)CN(CCO)CCN(CC(=O)O)CC(=O)O` [N-(2-Hydroxyethyl)-ethylenediamine-N,N′,N′-triacetic acid], the “ASTM G21” value ([5]; memory foam A2) is reported as 2 (10 to 30% of the surface is covered with mold fungi) and the “G21 (ASTM G21 strengthened rating)” value [5, 12] is reported as 3 (30 to 60% of the surface is covered with mold fungi).

For `CCCCCCCCCCCCCC[N+](C)(C)C.[Cl-]` [myristyltrimethylammonium chloride], the “G21 (ASTM G21 strengthened rating)” value [5, 10] was 2 (10 to 30% of the surface is covered with mold fungi), the “G21 (ASTM G21 strengthened rating)” value [5, 11] was 0 and the “G21 (ASTM G21 strengthened rating)” value [5, 13] was 0.

For `CCCCCCCCCCCCCCCCCC[N+](C)(C)CCC[Si](OC)(OC)OC.[Cl-]` [dimethyloctadecyl(3-(trimethoxysilyl)propyl)ammonium chloride], the “G21 (ASTM G21 strengthened rating)” value [5, 8] was 4 (at least 60% of the surface is covered with mold fungi) and the “G21 (ASTM G21 strengthened rating)” value [5, 9] was 3 (30 to 60% of the surface is covered with mold fungi).

In the case of “C8-C18-alkyldimethylbenzyl ammonium chloride”, the “G21 (ASTM G21 strengthened rating)” value [5, 9] is reported as 3 (30 to 60% of the surface is covered with mold fungi) and 2 (10 to 30% of the surface is covered with mold fungi), the “G21 (ASTM G21 strengthened rating)” value [5, 10] is reported as 4 (at least 60% of the surface is covered with mold fungi) and the “G21 (ASTM G21 strengthened rating)” value [5, 11] is reported as 4 (at least 60% of the surface is covered with mold fungi). For the same compound, the “G21 (ASTM G21 strengthened rating)” value [5, 13] was 0 and the “ASTM G21 strengthened rating” value ([5]; 0.25 pbw (C), 0 pbw (B)) was 3 (30 to 60% of the surface is covered with mold fungi).

`O=C(O)CN(CC(=O)O)CC(=O)O` [Nitrilotriacetic acid] was tested, and the “G21 (ASTM G21 strengthened rating)” value [5, 14] was 4 (at least 60% of the surface is covered with mold fungi).

With `O.O.O=C([O-])CN(CCN(CC(=O)O)CC(=O)O)CC(=O)[O-].[Na+].[Na+]` [disodium EDTA dihydrate, Disodium EDTA dihydrate] the “logarithmic reduction of bacterial growth (log R), JIS L 1902” value ([1]; 0.25 pbw (B), 0 pbw (C)) was 3.1 log R, the “SAN BIO 12-94 fungal growth” value ([3]; 0.25 pbw (B), 0 pbw (C)) was “Full (f) (insufficient protection, sample is covered with fungi)” and the “SAN BIO 12-94 fungal growth” value ([3]; 0.5 pbw (B), 0 pbw (C)) was “Full (f) (insufficient protection, sample is covered with fungi)”. For the same compound, the “SAN BIO 12-94 fungal growth” value ([3]; 1 pbw (B), 0 pbw (C)) was “Full (f) (insufficient protection, sample is covered with fungi)”, the “G21 (ASTM G21 strengthened rating)” value [5, 14] was 0 and the “antimicrobial efficiency / protection (in words)” value ([5]; memory foam A1, (B) combined with (C) dimethyltetradecyl(3-(trimethoxysilyl)propyl)ammonium chloride, ASTM G21 strengthened) was “very good antimicrobial efficiency”. The “G21 (ASTM G21 strengthened rating)” value ([5]; memory foam A2, 0.25 pbw (B), 0 pbw (C)) was 3 (30 to 60% of the surface is covered with mold fungi), the “ASTM G21” value ([5]; memory foam A2) was 0 and the “G21 (ASTM G21 strengthened rating)” value [5, 12] was 3 (30 to 60% of the surface is covered with mold fungi). For the same compound, the “G21 (ASTM G21 strengthened rating)” value ([5]; memory foam A2, 1 pbw (B), 0 pbw (C)) was 3 (30 to 60% of the surface is covered with mold fungi) and the “ASTM G21 strengthened rating” value ([5]; 0.5 pbw (B), 0 pbw (C)) was 4 (at least 60% of the surface is covered with mold fungi).

For `O=C(O)CC(O)(CC(=O)O)C(=O)O` [Citric acid], the “G21 (ASTM G21 strengthened rating)” value [5, 14] was 4 (at least 60% of the surface is covered with mold fungi).

For `CCCCCCCCCCC(=O)O` [Undecanoic acid], the “G21 (ASTM G21 strengthened rating)” value ([5]; memory foam A1, 0.5 pbw (B) with 0.5 pbw (C) dimethyltetradecyl(3-(trimethoxysilyl)propyl)ammonium chloride, (E) Arcol Polyol 1108 0.5 pbw) was 4 (at least 60% of the surface is covered with mold fungi).
